# Values joined by “and” are separate entries in the source; they are usually repeats but may differ in a detail not shown here. Equal values may be shown once.
# Experiments:
# DOPr [1] = molecular target: T1, DOPr (Homo sapiens, UniProt P41143); assay: biochemical; details: for Selectivity DOPr/MOPr (EC50): ratio of [35S]GTPγS EC50; for Emax: read-out: DOPr Emax ±SEM
# T1 construct: host or cells: CHO
# MOPr [2] = molecular target: T2, MOPr (Homo sapiens, UniProt P35372); assay: biochemical; type: binding; details: for MOPr ΔG: Gibb's free energy converted from experimental Ki; for Ki: [3H]-diprenorphine, CHO membranes, n = 3, mean ± SEM
# T2 construct: host or cells: CHO
# T2 sequence (P35372 whole entry): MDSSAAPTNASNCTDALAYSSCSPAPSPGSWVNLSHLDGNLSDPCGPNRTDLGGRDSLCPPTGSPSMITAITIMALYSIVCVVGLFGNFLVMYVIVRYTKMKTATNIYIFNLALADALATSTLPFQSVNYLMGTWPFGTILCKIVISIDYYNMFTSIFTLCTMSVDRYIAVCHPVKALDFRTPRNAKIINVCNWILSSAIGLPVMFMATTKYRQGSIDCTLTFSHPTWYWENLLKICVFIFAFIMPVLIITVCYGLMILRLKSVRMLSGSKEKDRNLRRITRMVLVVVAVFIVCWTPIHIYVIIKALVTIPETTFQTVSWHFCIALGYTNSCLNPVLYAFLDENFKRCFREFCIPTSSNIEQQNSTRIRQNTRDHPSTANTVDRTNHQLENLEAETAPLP
# Procedure: (§1) Cell lines, cell culture, and drug preparation. The hDOPr-CHO cell line was a generous gift from Dr. Larry Toll at the Torrey Pines Institute. The hMOPr- and hKOPr-CHO cell lines were generous gifts from John M. Streicher at the University of Arizona. All cells were cultured in 50:50 DMEM/F12 media with 10% heat-inactivated FBS and 1X penicillin/streptomycin supplement (all Gibco brand) in a 37°C humidified incubator with 5% CO2 atmosphere. Propagation cultures were further maintained with 500 μg/mL G418. Cultures were propagated for no more than 30 passages before discarding. […] Cell pellets were resuspended in 50 mM Tris HCl pH 7.4 and homogenized with a tissue grinder for 15–30 s on ice. Crude membranes were spun down at 15,000 g for 30 min. This process was repeated, and membrane preparations were stored at −80°C prior to use.
# (§2) Briefly, these reactions were miniaturized to a 400 μL volume in 96 well plates and incubated at RT for 1 h at DOPr-, KOPr- and MOPr-CHO membrane preparations. The reactions were terminated by rapid filtration through 96-well format GF/B filter plates (PerkinElmer) and washed with cold 25 mM Tris HCl pH 7.4 buffer, dried, and added ECOLUME^TM scintillation cocktail from MP Biomedicals (Santa Cruz, CA, United States). The plates were read in a MicroBeta2 96-well format 6 detector scintillation counter (PerkinElmer). KI values were calculated using the IC50 of each competitor ligand and the previously established KD of ^3H-diprenorphine in each cell line using a competition binding model (GraphPad Prism 7.0).
# KOPr [3] = molecular target: T3, KOPr (Homo sapiens, UniProt P41145); assay: biochemical; type: binding; details: for Ki: [3H]-diprenorphine, CHO membranes, n = 3, mean ± SEM; for Selectivity KOPr/MOPr (Ki): ratio of binding Ki
# T3 construct: host or cells: CHO
# T3 sequence (P41145 whole entry): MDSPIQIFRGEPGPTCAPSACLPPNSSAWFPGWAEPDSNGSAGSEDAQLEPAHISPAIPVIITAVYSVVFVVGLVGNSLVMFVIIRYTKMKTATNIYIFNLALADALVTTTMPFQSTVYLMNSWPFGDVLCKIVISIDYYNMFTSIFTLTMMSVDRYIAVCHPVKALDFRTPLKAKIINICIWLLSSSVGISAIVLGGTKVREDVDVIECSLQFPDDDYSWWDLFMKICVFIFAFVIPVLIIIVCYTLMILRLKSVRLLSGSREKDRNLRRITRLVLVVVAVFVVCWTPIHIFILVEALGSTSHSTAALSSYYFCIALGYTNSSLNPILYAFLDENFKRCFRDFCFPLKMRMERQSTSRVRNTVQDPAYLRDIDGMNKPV
# Procedure: as §1, §2
# DOPr [4] = molecular target: T1, DOPr; assay: biochemical; type: binding; details: for DOPr ΔG: Gibb's free energy converted from experimental Ki
# Procedure: as §1, §2
# MOPr [5] = molecular target: T2, MOPr; assay: [35S]GTPγS coupling, MOPr-CHO membranes; type: biochemical; details: for Emax: read-out: MOPr Emax ±SEM
# rats = test system: rats; design: method as in Mada et al., 2020; details: ref Mada et al., 2020; cited from earlier work
# C57BL/6 mice [6] = assay: Acute antinociception, 50°C warm water tail withdrawal (WWTW); type: in vivo, mouse; details: i.p.; for tail withdrawal latency, dose-response: 30 min before 50°C WWTW, C57BL/6 WT mice
# Procedure: The 50°C warm water tail withdrawal (WWTW) antinociception assay is a standard preclinical pain assay, in which clinical analgesics increase the latency of tail removal from the warm water (Figure 2A).
# To compare the total antinociceptive activity over time, we determined the area under the curve (AUC) of each ligand’s time-course.
# Acute antinociception: 50°C warm-water tail withdrawal test in C57BL/6 mice. […] A maximum cutoff time of 20 s was implemented to prevent tissue damage. […] Drug-stimulated antinociception was expressed as a percentage of maximum possible effect (% MPE), where % MPE = (drug latency—baseline latency)/(cutoff latency—baseline latency) × 100. The acute antinociception results were analyzed with a one-way ANOVA followed by a post hoc Dunnett test comparing the drug(s) to vehicle.
# C57BL/6 mice [7] = assay: Toxicology on chronic administration (body weight, health); type: in vivo, mouse; details: for weight-loss on chronic administration: 32 mg/kg, C57BL/6 WT mice, tolerance experiment; for health on repeated administration (need for euthanasia): preliminary experiments, without saline supplement
# C57BL/6 mice [8] = assay: Chronic administration and antinociceptive tolerance, 50°C WWTW; type: in vivo, mouse; details: for day of first statistically significant antinociceptive tolerance: 10 mg/kg morphine, 32 mg/kg 12, i.p. 3x daily, WT mice
# Procedure: As expected, the OPr antagonist and MOPr KO experiments indicate that antinociception and likely tolerance are MOPr-mediated effects.
# Chronic administration and antinociceptive tolerance. To investigate antinociceptive tolerance, either C57BL/6 WT or MOR KO mice were administered (i.p.) drug 2-3 times a day as indicated (Figure 3). […]. Mice administered with 12 were injected with 0.5 mL 0.9% saline (s.c.) twice daily. Mice were injected again at 7 p.m. on day 1, but neither weighed nor tested for antinociception. […]. A two-way analysis of variance (ANOVA) was conducted for all tolerance assays. The significance threshold was p < 0.05, and a Tukey post hoc test followed all significant ANOVAs.
# KOPr [9] = molecular target: T3, KOPr; assay: [35S]GTPγS coupling, KOPr-CHO membranes; type: biochemical; details: Emax% relative to U69,593, read-out: KOPr Emax ±SEM
# DOPr [10] = molecular target: T1, DOPr; assay: βarrestin2 recruitment (DiscoveRx PathHunter); type: cell-based
# Text: We further evaluated 12 in βarrestin2 recruitment assays (DiscoveRx) to evaluate DOPr agonist vs. antagonist efficacy in a higher efficacy requiring assay (Supplementary Figure S1). […] None of the compounds in this series stimulated KOPr-mediated G-protein recruitment. Retaining selectivity over KOPr is vital because KOPr agonists cause dysphoria and hallucinations ([Bruchas et al., 2007]; [Cunningham et al., 2011]).
# βarrestin2 recruitment. βarrestin2 recruitment in CHO cells expressing […] was measured using the DiscoverRx PathHunter® assay kit (DiscoveRx, Fremont, CA) according to the manufacturer’s protocol. Assays were performed on at least three separate occasions in triplicate. Luminescence was read using a Synergy 2 plate reader (BioTek, Winooski, VT).
# T1 sequence (P41143 whole entry): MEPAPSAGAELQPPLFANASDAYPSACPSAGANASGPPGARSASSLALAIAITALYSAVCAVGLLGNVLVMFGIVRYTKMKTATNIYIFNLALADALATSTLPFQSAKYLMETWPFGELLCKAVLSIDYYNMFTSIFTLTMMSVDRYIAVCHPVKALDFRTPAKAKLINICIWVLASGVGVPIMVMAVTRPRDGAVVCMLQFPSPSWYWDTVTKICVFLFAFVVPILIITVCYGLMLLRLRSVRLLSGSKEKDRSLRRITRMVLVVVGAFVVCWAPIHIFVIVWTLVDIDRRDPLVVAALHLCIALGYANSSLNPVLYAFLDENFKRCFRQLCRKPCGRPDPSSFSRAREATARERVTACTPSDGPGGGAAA
compound,measurement,setting,value
CN1CC[C@]23c4c5ccc(O)c4O[C@H]2C(=O)/C(=C/c2ccc(O)cc2)C[C@@]3(O)[C@H]1C5 [Compound 11],EC50,DOPr [1],97 ± 40 nM
same,Selectivity DOPr/MOPr (EC50),DOPr [1],0.35
same,Emax,DOPr [1],21 ± 6%
same,MOPr ΔG,MOPr [2],-10.49 ± 0.14 kcal/mol
same,Ki,MOPr [2],22.7 ± 6 nM
same,Ki,KOPr [3],> 1000 nM
same,Selectivity KOPr/MOPr (Ki),KOPr [3],>44
same,Ki,DOPr [4],37 ± 7 nM
same,DOPr ΔG,DOPr [4],-10.20 ± 0.10 kcal/mol
same,EC50,MOPr [5],275 ± 100 nM
same,Emax,MOPr [5],85 ± 6%
CN1CC[C@]23c4c5ccc(O)c4O[C@H]2C(=O)/C(=C/c2ccc(F)cc2)C[C@@]3(O)[C@H]1C5 [Compound 7],Emax,DOPr [1],< 15%
same,MOPr ΔG,MOPr [2],-10.57 ± 0.28 kcal/mol
same,Ki,MOPr [2],19.9 ± 11.7 nM
same,Ki,KOPr [3],> 1000 nM
same,Selectivity KOPr/MOPr (Ki),KOPr [3],>50
same,Ki,DOPr [4],55 ± 8 nM
same,DOPr ΔG,DOPr [4],-9.97 ± 0.08 kcal/mol
same,EC50,MOPr [5],95 ± 25 nM
same,Emax,MOPr [5],69 ± 16%
CN1CC[C@]23c4c5ccc(O)c4O[C@H]2C(=O)/C(=C/c2cccc4ccccc24)C[C@@]3(O)[C@H]1C5 [Compound 13],EC50,DOPr [1],102 ± 37 nM
same,Emax,DOPr [1],36 ± 10%
same,MOPr ΔG,MOPr [2],-9.78 ± 0.17 kcal/mol
same,Ki,MOPr [2],75 nM and 74.8 nM
same,Ki,KOPr [3],> 1000 nM
same,Selectivity KOPr/MOPr (Ki),KOPr [3],>13
same,Ki,DOPr [4],56 ± 20 nM
same,DOPr ΔG,DOPr [4],-9.95 ± 0.18 kcal/mol
same,EC50,MOPr [5],> 1000 nM
CN1CC[C@]23c4c5ccc(O)c4O[C@H]2C(=O)/C(=C/c2ccc(Br)cc2)C[C@@]3(O)[C@H]1C5 [Compound 9],Emax,DOPr [1],< 15%
same,MOPr ΔG,MOPr [2],-10.16 ± 0.14 kcal/mol
same,Ki,MOPr [2],39.9 ± 10.5 nM
same,Ki,KOPr [3],> 1000 nM
same,Selectivity KOPr/MOPr (Ki),KOPr [3],>25
same,Ki,DOPr [4],121 ± 45 nM
same,DOPr ΔG,DOPr [4],-9.50 ± 0.19 kcal/mol
same,EC50,MOPr [5],> 1000 nM
"CN1CC[C@]23c4c5ccc(O)c4O[C@H]2C(=O)/C(=C/c2ccccc2)C[C@@]3(O)[C@H]1C5 [Compound 5, 7-E-benzylideneoxymorphone]",EC50,DOPr [1],26 ± 4 nM
same,Emax,DOPr [1],22 ± 4%
same,antinociception in the warm water tail withdrawal test,rats,< 20 % MPE
same,"tail withdrawal latency, dose-response",C57BL/6 mice [6],negligible antinociception
same,EC50,MOPr [5],63 ± 25 nM
same,Emax,MOPr [5],53 ± 9%
same,weight-loss on chronic administration,C57BL/6 mice [7],neither weight-loss nor antinociception
same,antinociception in the tolerance paradigm,"C57BL/6 mice [8]; 32 mg/kg, C57BL/6 WT mice",neither weight-loss nor antinociception
CN1CC[C@]23c4c5ccc(O)c4O[C@H]2C(=O)/C(=C/c2ccc4ccccc4c2)C[C@@]3(O)[C@H]1C5 [Compound 14],Emax,DOPr [1],< 15%
same,MOPr ΔG,MOPr [2],-12.20 ± 0.29 kcal/mol
same,Ki,MOPr [2],1.3 ± 0.8 nM
same,Ki,KOPr [3],390 ± 140 nM
same,Selectivity KOPr/MOPr (Ki),KOPr [3],299
same,Ki,DOPr [4],36 ± 4 nM
same,DOPr ΔG,DOPr [4],-10.22 ± 0.06 kcal/mol
same,EC50,MOPr [5],12 ± 5 nM
same,Emax,MOPr [5],78 ± 11%
same,Emax,KOPr [9],< 15%
CN1CC[C@]23c4c5ccc(O)c4O[C@H]2C(=O)/C(=C/c2ccc(Cl)cc2)C[C@@]3(O)[C@H]1C5 [Compound 8],EC50,DOPr [1],145 ± 14 nM
same,Selectivity DOPr/MOPr (EC50),DOPr [1],<0.15
same,Emax,DOPr [1],9 ± 3%
same,MOPr ΔG,MOPr [2],-10.46 ± 0.03 kcal/mol
same,Ki,MOPr [2],23.8 ± 1.2 nM
same,Ki,KOPr [3],> 1000 nM
same,Selectivity KOPr/MOPr (Ki),KOPr [3],>42
same,Ki,DOPr [4],47 ± 16 nM
same,DOPr ΔG,DOPr [4],-10.06 ± 0.17 kcal/mol
same,EC50,MOPr [5],> 1000 nM
COc1ccc(/C=C2\C[C@@]3(O)[C@H]4Cc5ccc(O)c6c5[C@@]3(CCN4C)[C@@H](O6)C2=O)cc1 [Compound 10],EC50,DOPr [1],102 ± 8 nM
same,Selectivity DOPr/MOPr (EC50),DOPr [1],0.59
same,Emax,DOPr [1],30 ± 9%
same,MOPr ΔG,MOPr [2],-10.92 ± 0.12 kcal/mol
same,Ki,MOPr [2],11 ± 2.4 nM
same,Ki,KOPr [3],> 1000 nM
same,Selectivity KOPr/MOPr (Ki),KOPr [3],>90
same,Ki,DOPr [4],37 ± 9 nM
same,DOPr ΔG,DOPr [4],-10.20 ± 0.13 kcal/mol
same,EC50,MOPr [5],172 ± 55 nM
same,Emax,MOPr [5],80 ± 5%
"CN1CC[C@]23c4c5ccc(O)c4O[C@H]2C(=O)/C(=C/c2ccc([N+](=O)[O-])cc2)C[C@@]3(O)[C@H]1C5 [Compound 12, Nitro-benzylideneoxymorphone]",EC50,DOPr [1],20 ± 5 nM
same,Selectivity DOPr/MOPr (EC50),DOPr [1],9.1
same,Emax,DOPr [1],28 ± 4%
same,MOPr ΔG,MOPr [2],-12.42 ± 0.17 kcal/mol
same,Ki,MOPr [2],0.9 ± 0.3 nM
same,Ki,KOPr [3],180 ± 60 nM
same,Selectivity KOPr/MOPr (Ki),KOPr [3],197
same,Ki,DOPr [4],10 ± 3 nM
same,DOPr ΔG,DOPr [4],-10.98 ± 0.16 kcal/mol
same,Kb,DOPr [10],32 nM
same,"DOPr-mediated βarrestin2 recruitment, compound alone","DOPr [10]; agonist mode, any concentration",did not stimulate
same,area under the curve (AUC) of antinociceptive time-course,"C57BL/6 mice [6]; 32 mg/kg 12 or 10 mg/kg morphine, tested every 30 min",9247 s*min
same,"tail withdrawal latency, dose-response",C57BL/6 mice [6],dose-dependent increase in tail withdrawal latency
same,antinociceptive potency relative to morphine,"C57BL/6 mice [6]; less potent than morphine, WWTW",approximately 3 fold
same,EC50,MOPr [5],2.2 ± 0.5 nM
same,MOPr potency relative to that reported for oxymorphone,"MOPr [5]; higher potency than oxymorphone (Olson et al., 2019)",approximately 10 fold
same,Emax,MOPr [5],87 ± 7%
same,weight-loss on chronic administration,C57BL/6 mice [7],equal or greater weight-loss than those treated with morphine
same,health on repeated administration (need for euthanasia),C57BL/6 mice [7],became sick and had to be euthanized
same,day of first statistically significant antinociceptive tolerance,C57BL/6 mice [8],2 days
same,antinociception after naloxone pretreatment,"C57BL/6 mice [8]; 32 mg/kg 12, 10 mg/kg naloxone pretreatment, C57BL/6 WT",blocked antinociception
same,antinociception in MOPr KO mice,"C57BL/6 mice [8]; 32 mg/kg i.p., C57BL/6 MOPr KO",did not show antinociception
same,Emax,KOPr [9],< 15%
"CN1CC[C@]23c4c5ccc(O)c4O[C@H]2[C@@H](O)C=C[C@H]3[C@H]1C5 [morphine, reference compound]",health on repeated administration (need for euthanasia),C57BL/6 mice [7],did not require euthanasia
same,day of first statistically significant antinociceptive tolerance,C57BL/6 mice [8],3 days
